Earlier results on one compound are cited in US20250152507A1, “SUBLINGUAL COMPOSITIONS FOR ERECTILE DYSFUNCTION” (Woody's Medical LLC, priority 2023, published 2025).

This data set has as its system men with mild ED. The following applies: reported in C. McMahon et al., BMJ 2006.

Regarding `CN1CCc2cccc3c2[C@H]1Cc1ccc(O)c(O)c1-3` [Apomorphine, apomorphine], the “effect in men with mild ED” value is “only a small effect”.
